In ChEMBL document CHEMBL1154665, “Novel compounds designed as antistress agents” (J Med Chem, 2009) one finds IC50 and Activity data, which are given here for four molecules.

One experiment has as its system Brain. The experiment is described as follows: Antioxidant activity in rat brain homogenate assessed as malondialdehyde release. It counts as functional, tissue-based.
Experiment [1] deals with Rattus norvegicus. In words: Antistress activity against food and water deprivation-induced stress in rat assessed as increase in thymus weight measured per 100 gm of body weight at 0.055 mmol/kg, ip after 3 hrs. It is filed as functional.
The test system of experiment [2] is Rattus norvegicus. In words: Antistress activity against food and water deprivation-induced stress in rat assessed as increase in adrenal weight measured per 100 gm of body weight at 0.055 mmol/kg, ip after 3 hrs. It is filed as functional.
For experiment [3], the system named is Rattus norvegicus. The experiment is described as follows: Antistress activity against food and water deprivation-induced stress in rat assessed as increase in liver weight measured per 100 gm of body weight at 0.055 mmol/kg, ip after 3 hrs. It counts as functional.
In experiment [4] the test system is Rattus norvegicus. In words: Antistress activity against food and water deprivation-induced stress in rat assessed as change in body weight at 0.055 mmol/kg, ip after 3 hrs. It counts as functional.
Experiment [5] deals with Rattus norvegicus. In words: Antistress activity against food and water deprivation-induced stress in rat assessed as decrease in uropepsinogen level in urine at 0.055 mmol/kg, ip after 3 hrs. It counts as functional.
Experiment [6] has as its system Rattus norvegicus. The experiment is described as follows: Antistress activity against food and water deprivation-induced stress in rat assessed as reduction in malondialdehyde formation at 0.055 mmol/kg, ip after 3 hrs. It is filed as functional.
For experiment [7], the species on record is Rattus norvegicus. In words: Antistress activity in rat assessed as decrease in stress-induced hepatic cytochrome P450 level by spectroscopically. On the set-up: scale not given: the % may be the effect or the level left. It counts as functional.
Experiment [8] is filed under the species Rattus norvegicus. In words: Antistress activity in rat assessed as decrease in stress-induced oxidative N-demethylation of erythromycin. It counts as functional. Set-up: scale not given: the % may be the effect or the level left.
In experiment [9] the test system is Rattus norvegicus. The experiment is described as follows: Antihyperlipidemic activity in triton WR 1339 treated rat assessed as plasma total cholesterol at 56 umol/kg, ip measured after 24 hrs. It is filed as functional.
Experiment [10] concerns Rattus norvegicus. In words: Antihyperlipidemic activity in triton WR 1339 treated rat assessed as LDL-cholesterol at 56 umol/kg, ip measured after 24 hrs. It is filed as functional.
Experiment [11] concerns Rattus norvegicus. In words: Antihyperlipidemic activity in triton WR 1339 treated rat assessed as triglyceride at 56 umol/kg, ip measured after 24 hrs. It counts as functional.

Take `CC(C)(C)c1cc(C(=O)O)cc(C(C)(C)C)c1O`: in the experiment on Brain, the IC50 (usually the concentration that inhibits the measured activity by half) amounted to 257 µM.

For `Cc1c(C)c2c(c(C)c1O)CC[C@](C)(C(=O)NCCCC(=O)OC1N=C(c3ccccc3Cl)c3cc(Cl)ccc3NC1=O)O2` (some centres undefined), in the experiment with Brain, the IC50 amounted to 1.1 µM. For the same molecule, the Activity with Rattus norvegicus [1] is listed as 117 mg; in the experiment with Rattus norvegicus [2] it was 34 mg; in the experiment on Rattus norvegicus [3], 4.2 mg; in the experiment with Rattus norvegicus [4] it was -10%; in the experiment with Rattus norvegicus [5], 34 kiloU/hr; in the experiment on Rattus norvegicus [6], 37.5 nmol/mg. The Activity is 35% in the experiment filed under Rattus norvegicus [7]; 40% in the experiment filed under Rattus norvegicus [8]; 40% in the experiment with Rattus norvegicus [9]; 40% in the experiment with Rattus norvegicus [10]; 40% in the experiment on Rattus norvegicus [11].

As for `CC(C)(C)c1cc(C(=O)NCCCC(=O)OC2N=C(c3ccccc3Cl)c3cc(Cl)ccc3NC2=O)cc(C(C)(C)C)c1O` (centres undefined), the half-inhibitory concentration (IC50) in the experiment on Brain came out at 24 µM. In addition, the Activity with Rattus norvegicus [1] was 151 mg; in the experiment on Rattus norvegicus [2], 40 mg; with Rattus norvegicus [3], 4.5 mg; with Rattus norvegicus [4], -3.8%; in the experiment with Rattus norvegicus [5] it was 30 kiloU/hr; in the experiment on Rattus norvegicus [6], 41.2 nmol/mg. The Activity with Rattus norvegicus [9], in the experiment with Rattus norvegicus [10] and with Rattus norvegicus [11] was 40% each time.

Take `Cc1c(C)c2c(c(C)c1O)CC[C@](C)(C(=O)O)O2` [(R)-TROLOX]: the IC50 in the experiment on Brain was found to be 25 µM.
